{
  "source": "ChEMBL document CHEMBL1126449",
  "about": "“Synthesis and anti-acetylcholinesterase activity of 1-benzyl-4-[(5,6-dimethoxy-1-indanon-2-yl)methyl]piperidine hydrochloride (E2020) and related compounds” (Bioorg Med Chem Lett, 1992)",
  "note": "pIC50: −log10 of the molar value.",
  "data": [
    {"biological_target": "T1, Acetylcholinesterase (Mus musculus, UniProt P21836)", "T1 sequence (P21836 whole entry)": "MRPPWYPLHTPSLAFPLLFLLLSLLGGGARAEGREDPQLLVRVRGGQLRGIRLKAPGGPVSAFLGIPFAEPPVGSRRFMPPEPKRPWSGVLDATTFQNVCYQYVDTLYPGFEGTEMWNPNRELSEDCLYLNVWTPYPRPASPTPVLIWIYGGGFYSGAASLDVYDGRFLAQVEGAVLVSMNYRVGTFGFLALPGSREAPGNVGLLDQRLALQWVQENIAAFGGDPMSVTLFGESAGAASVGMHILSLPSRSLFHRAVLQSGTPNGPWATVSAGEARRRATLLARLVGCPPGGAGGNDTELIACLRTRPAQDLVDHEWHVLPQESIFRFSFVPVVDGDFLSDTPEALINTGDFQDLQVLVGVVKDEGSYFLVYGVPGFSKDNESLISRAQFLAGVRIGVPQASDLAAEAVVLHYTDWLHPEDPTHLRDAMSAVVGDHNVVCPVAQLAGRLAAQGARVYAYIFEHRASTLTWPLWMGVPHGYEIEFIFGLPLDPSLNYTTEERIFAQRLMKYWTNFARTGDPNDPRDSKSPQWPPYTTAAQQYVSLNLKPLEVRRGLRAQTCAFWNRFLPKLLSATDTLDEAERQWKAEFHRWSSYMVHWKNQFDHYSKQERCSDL", "assay": "biochemical", "description": "Inhibition of Acetylcholinesterase activity in mouse brain homogenate", "values": [
      {"smiles": "COc1cc2c(cc1OC)C(=O)/C(=C/C1CCN(Cc3ccccc3)CC1)C2", "pIC50": 7.89},
      {"smiles": "COc1cc2c(cc1OC)C(=O)C(CC1CCN(Cc3cccc(C)c3)CC1)C2", "note": "(configuration not stated)", "pIC50": 8.57},
      {"smiles": "COc1cc2c(cc1OC)C(=O)C(CC1CCN(Cc3ccc([N+](=O)[O-])cc3)CC1)C2", "note": "(configuration not stated)", "pIC50": 7.00},
      {"smiles": "COc1cc2c(cc1OC)CC(CC1CCN(Cc3ccccc3)CC1)=C2", "pIC50": 5.36},
      {"smiles": "COc1cc2c(cc1OC)C(=O)C(CC1CCN(Cc3ccccc3C)CC1)C2", "note": "(configuration not stated)", "pIC50": 8.00},
      {"smiles": "COc1cc2c(cc1OC)C(=O)/C(=C/CC1CCN(Cc3ccccc3)CC1)C2", "pIC50": 6.82},
      {"smiles": "COc1cc2c(cc1OC)C(=O)C(CC1CCN(CC3CCCCC3)CC1)C2", "note": "(configuration not stated)", "pIC50": 8.05},
      {"smiles": "COc1cc2c(cc1OC)C(=O)C(CC1CCN(CCc3ccccc3)CC1)C2", "note": "(configuration not stated)", "pIC50": 6.74},
      {"smiles": "COc1cc2c(cc1OC)C(=O)C(CN1CCN(Cc3ccccc3)CC1)C2", "note": "(configuration not stated)", "pIC50": 7.03},
      {"smiles": "COc1cc2c(cc1OC)C(O)C(CC1CCN(Cc3ccccc3)CC1)C2", "note": "(configuration not stated)", "pIC50": 6.52},
      {"smiles": "COc1cc2c(cc1OC)C(=O)C(CC1CCN(Cc3cccc([N+](=O)[O-])c3)CC1)C2", "note": "(configuration not stated)", "pIC50": 8.40},
      {"smiles": "COc1cc2c(cc1OC)C(=O)C(CC1CCN(C(=O)c3ccccc3)CC1)C2", "note": "(configuration not stated)", "pIC50": "< 5.00"}
    ]}
  ]
}
